Test results as given in BigSolDB 2.1.

O=C(O)/C=C/C(=O)O.OCCOCCN1CCN(C2=Nc3ccccc3Sc3ccccc32)CC1.OCCOCCN1CCN(C2=Nc3ccccc3Sc3ccccc32)CC1
solubility (mole fraction)
Details | 283.15 K | 288.15 K | 293.15 K | 298.15 K | 303.15 K | 308.15 K | 313.15 K | 318.15 K | 323.15 K
in 2-butanone | 0.000134 | 0.000164 | 0.000204 | 0.000251 | 0.000309 | 0.000382 | 0.000462 | 0.000581 | 0.000721
in MIBK | 0.000128 | 0.000153 | 0.000181 | 0.000224 | 0.000273 | 0.000328 | 0.000398 | 0.000475 | 0.000571
in MTBE | 4.36e-05 | 5.55e-05 | 6.74e-05 | 8.27e-05 | 0.000107 | 0.00013 | 0.000161 | 0.000192 | 0.000241
in THF | 0.000705 | 0.000873 | 0.00108 | 0.00133 | 0.00167 | 0.00208 | 0.00261 | 0.00323 | 0.00409
in dichloromethane | 0.000174 | 0.000213 | 0.000279 | 0.000365 | 0.00046 | 0.000597 | 0.000775 | – | –
in ethyl formate | 8.6e-05 | 0.000105 | 0.000125 | 0.000158 | 0.000197 | 0.00024 | 0.000291 | 0.000362 | 0.000445
in isopropyl acetate | 3.95e-05 | 4.7e-05 | 5.77e-05 | 6.96e-05 | 8.3e-05 | 0.000104 | 0.000127 | 0.000158 | 0.000191
in n-heptane | 1.59e-05 | 1.94e-05 | 2.44e-05 | 3.02e-05 | 3.61e-05 | 4.57e-05 | – | 6.96e-05 | –
in n-hexane | 1.46e-05 | 1.77e-05 | 2.17e-05 | 2.75e-05 | 3.3e-05 | 4.17e-05 | 5.15e-05 | 6.53e-05 | 8.16e-05
in n-propanol | 0.000244 | 0.000317 | 0.000396 | 0.000497 | 0.000614 | 0.000797 | 0.00101 | 0.00126 | 0.0016
in toluene | 3.01e-05 | 3.49e-05 | 4.19e-05 | 4.98e-05 | 5.82e-05 | 7.09e-05 | 8.5e-05 | 0.000102 | 0.000121
